# Experimental data published in US9718771B2, “Aniline derivative, pharmaceutical composition containing same, and use thereof” (Kissei Pharmaceutical Co., Ltd., priority 2014, dated 2017).
# pIC50: −log10 of the molar value.
# Molecular target: human S1P1 (EDG-1) (Homo sapiens (Human), UniProt P21453)
# Assay: Confirmation test of antagonistic activity for human S1P1 receptor (35S-GTP binding, cell membranes)
# Type: biochemical
# Conditions: inhibition of 35S-GTP binding induced by S1P1 receptor selective agonist; HEK293 membranes expressing human S1P1
# Experimental: Confirmation Test of Antagonistic Activity for Human S1P1 Receptor
# Test compounds were tested by reduction of functional binding activity of ^35S-GTP (guanosine 5′-O-[gamma-thio] triphosphate, PerkinElmer) to G protein using cell membranes expressing human S1P1 (EDG-1). S1P1-pcDNA3.1/V5-His-Topo vector was prepared by inserting cDNA (NM_001400) encoding human S1P1 into the expression vector, pcDNA3.1/V5-His-Topo (registered trademark) (Invitrogen). Next, the above S1P1-pcDNA3.1 vector was transfected into HEK293 cells by Lipofectamine2000 (registered trademark) (Invitrogen). The transfected cells were incubated with D-MEM liquid medium each containing 10% FBS (Fetal bovine serum), 100 U/mL penicillin, 100 μg/mL streptomycin and 1 mg/mL Geneticin (registered trademark) (Invitrogen) in an incubator under the condition of 5% CO2 at 37° C. and Geneticin (registered mark)-resistant cell line stably expressing S1P1 were obtained. The obtained stably S1P1-expressing cells were incubated with D-MEM liquid medium each containing 10% FBS and 0.5 mg/mL Geneticin (registered trademark) in an incubator under the condition of 5% CO2 at 37° C. The cells grown to confluence were harvested by a buffer solution containing 50 mM Tris, 2 mM EDTA (ethylmediaminetetraacetic acid) and 125 mM sodium chloride, and centrifuged at 1880×g, 4° C. for 10 minutes. After a supernatant was removed, a cell pellet was resuspended by the same buffer solution. For making cell membranes fragile, this cell suspension was frozen at −80° C. and then thawed. The cells were centrifuged at 1880×g, 4° C. for 10 minutes, and a supernatant was removed. The cell pellet was suspended by adding the same buffer solution and a fracture solution (10 mM sodium bicarbonate and 5 mM EDTA, pH 7.5) at a ratio of 2:1. The cells were fractured by subjecting the cell suspension to ultrasonication, and a cell membrane fraction was isolated by centrifugation at 1880×g, 4° C. for 10 minutes and ultracentrifugation of the supernatant at 80000×g, 4° C. for 30 minutes. A pellet of the cell membrane fraction was suspended by the fracture solution containing protease inhibitor cocktail (Roche) and stored at −80° C. until use. A protein concentration of the cell membrane fraction was determined using BCA Protein Assay Kit (Pierce) in accordance with an attached protocol.
# Inhibitory activity evaluation was performed by multi-screen (registered trademark) HTS 96-well plate (Millipore) using the cell membrane fraction stably expressing S1P1 obtained by the above operation. 25 μL of assay solution (50 mM Tris, 100 mM sodium chloride, 5 mM magnesium chloride, 1 mM EDTA, 1 mM DTT (dithiothreitol), 10 μM GDP (guanosine diphosphate) and 0.5% BSA (bovine serum albumin), pH 7.4), 25 μL of test compounds solution diluted by assay solution and 25 μL of the membrane fraction (0.2 μg protein/μL) were added to each well, and the mixture was gently shaken at room temperature: for 30 minutes. Then, 25 μL of ^35S-GTP, and 25 μL of 50 nM S1P1 receptor selective agonist (1-[4-(4-phenyl-5-trifluoromethylthiophen-2-ylmethoxy)benzyl]azetidine-3-carboxylic acid, “J. Med. Chem.”, 2004, vol. 47, pp. 6662-6665, compound 18) were added to each well, respectively, and it was reacted at room temperature for 60 minutes. After the reaction, a reaction solution of each well was suction-filtered. After suction filtration, ice-colded wash solution (50 mM Tris, 100 mM sodium chloride, […] and 1 mM EDTA, pH 7.4) was added to each well, and moreover filters were washed by suction filtration. This wash procedure was performed three times. A bottom of the plate containing the filters was dried at 60° C. After drying, 30 μL of MicroScinti-40 (PerkinElmer) was added to each well, and the radioactivity adsorbed on the filter was determined by TopCount NXT (registered trademark) (PerkinElmer) after shaking for 30 minutes at room temperature. […]
# Sequence of human S1P1 (EDG-1) (P21453 whole entry): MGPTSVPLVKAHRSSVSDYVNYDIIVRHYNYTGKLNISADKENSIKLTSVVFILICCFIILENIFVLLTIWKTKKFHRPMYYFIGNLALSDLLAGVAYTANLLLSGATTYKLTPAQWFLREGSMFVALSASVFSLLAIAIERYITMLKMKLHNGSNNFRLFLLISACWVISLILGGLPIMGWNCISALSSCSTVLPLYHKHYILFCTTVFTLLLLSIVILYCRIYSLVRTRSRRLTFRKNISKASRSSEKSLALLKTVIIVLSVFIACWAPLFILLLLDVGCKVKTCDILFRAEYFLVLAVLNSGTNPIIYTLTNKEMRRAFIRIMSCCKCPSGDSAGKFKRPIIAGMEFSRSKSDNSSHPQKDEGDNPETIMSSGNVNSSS
row,pIC50,Compound
1,9.00,"CCN(c1ccc(Cl)c(C)c1)C(C)c1ccc(C)c(CN2CC(C(=O)O)C2)c1 (centres unmarked) [Compound 2-6, 1-(5-{1-[(4-Chloro-3-methylphenyl)(ethyl)amino]ethyl}-2-methylbenzyl)azetidine-3-carboxylic acid]"
2,8.92,"CCN(c1ccc(Cl)c(C(F)(F)F)c1)C(C)c1ccc(C)c(CN2CC(C(=O)O)C2)c1 (centres unmarked) [Compound 2-7, 1-(5-{1-[(4-Chloro-3-trifluoromethylphenyl)(ethyl)amino]ethyl}-2-methylbenzyl)-azetidine-3-carboxylic acid]"
